This data set concerns ADJ/PC6 tumour. Kind of data set: anti-tumour activity against ADJ/PC6 tumour implanted into female Balb C- mice. It counts as in vivo. Also on record: LD50: unit not given here. As to conditions: for TI / ED90: ADJ/PC6 tumour; for ED90: in mg/kg (unit assumed). How it is done: Compounds were administered both parenterally (IP) and orally (PO).

Turning to `CC1(C)OC(CN)C(CN)O1.[Br][Pt][Br]` (racemic) [cis-dibromo[4,5-bis(aminomethyl)-2,2-dimethyl-1,3-dioxolane]platinum (II)], for the setting “IP (parenteral)”, the LD50 is given as 21, the TI was 5.2 and the ED90 was found to be 4.

On to `CC1(C)OC(CN)C(CN)O1.[Cl][Pt][Cl]` [cis-dichloro[(4R,5R)-4,5-bis-(aminomethyl)-2,2-dimethyl-1,3-] [cis-dichloro[(4R,5R)-4,5-bis-(aminomethyl)-2,2-dimethyl-1,3-dioxolane]platinum (II)], for which, where the note is “IP (parenteral)”, the LD50 stood at 35, the TI came to 22.6 and the ED90 is on record as 1.6. Under “PO (oral)”, this molecule had an LD50 of 1100, a TI of 122 and an ED90 of 9.

For `CC1(C)OC(CN)C(CN)O1.[Cl][Pt][Cl]` [cis-dichloro[(4S,5S)-4,5-bis-(aminomethyl)-2,2-dimethyl-1,3-] [cis-dichloro[(4S,5S)-4,5-bis-(aminomethyl)-2,2-dimethyl-1,3-dioxolane]platinum (II)], under “IP (parenteral)”, the LD50 came out at 35, the TI is 23.9 and the ED90 was 1.46. Further, under “PO (oral)”, the LD50 worked out at 1130, the TI is 43.5 and the ED90 stood at 26.

In the case of `[Cl][Pt]1([Cl])[NH]CC2OC(c3ccccc3)OC2C[NH]1` [cis-dichloro[(4S,5S)-4,5-bis-(aminomethyl)-2-phenyl-1,3-dioxolane]platinum (II)], where the note is “IP (parenteral)”, the LD50 was more than 800, the TI was more than 26 and the ED90 was 30. Also, under “PO (oral)”, the LD50 is on record as more than 1600, the TI is reported as more than 1 and the ED90 is ~ 1600.

As to “cis-dichloro[2,3-dihydroxy-1,2-diamino butane)-platinum (II) [reference compound]”, for the setting “IP (parenteral)”, the LD50 is more than 400, the TI is recorded as more than 1 and the ED90 is given as 380. Where the note is “PO (oral)”, this molecule yielded an LD50 of more than 800.

(Values after US4783452A, “Platinum coordination compounds” (Johnson Matthey Public Limited Company, priority 1985, dated 1988).)
